Assay results taken from patent publication US11236122B2, “Triterpene amine derivatives” (DFH THERAPEUTICS, priority 2018, dated 2022).
Counter-ions that a name gives are not always drawn.

Assays:
[1] = system: panel of HIV-1 isolates in human PBMCs; assay: PBMC antiviral assay against a panel of HIV-1 isolates (RT activity); assay type: cell-based
Procedure: Antiviral assays. To produce HIV-1 stocks, 293T cells were transfected with WT pNL4-3 or the SP1-V7A derivative and culture supernatants were collected 24 h post transfection. RT-normalized virus supernatants were used to infect MT-4 cells at room temperature for 30 min. Cells were then cultured in the presence of serial dilutions of compounds. At 4 d post-infection, the culture supernatants were subjected to RT assay to monitor viral replication. The 50% inhibitory concentrations (IC50s) were defined as compound concentrations that reduced RT levels to 50% those measured in the absence of inhibitor (DMSO only controls) using GraphPad Prism 6 software. The IC50s in primary peripheral blood mononuclear cells (PBMCs) were calculated with a multi-clade panel of HIV-1 isolates by Southern Research Institute (Frederick, Md.). The PBMCs were stimulated with phytohemagglutinin (PHA) and IL-2 prior to use in the antiviral assays.
Virus Isolates. Compound evaluation against a panel of HIV-1 isolates were performed by the Southern Research Institute (SRI). The viruses were chosen to include one isolate from each of the seven HIV-1 Group M envelope subtypes A, B, C, D, E, F, and G, as well as isolates from HIV-1 Groups O and N. In addition, various drug resistant HIV-1 isolates were included for evaluation. The HIV-1 isolates selected include CCR5-tropic and CXCR4-tropic isolates. Unless otherwise noted, all virus isolates were obtained from the NIH AIDS Research and Reference Reagent Program. Virus isolate 1022-48 was obtained from Dr. William A. Schief of Merck Research Laboratories. MDR769 and MDR807 were obtained from Dr. Thomas C. Merigan of Stanford University. A low passage stock of each virus was prepared using fresh human PBMCs and stored in liquid nitrogen. Pre-titered aliquots of each virus were removed from the freezer and thawed rapidly to rt in a biological safety cabinet immediately before use.
Human PBMC Preparation. Fresh human PBMCs were isolated from screened donors, seronegative for HIV and HBV (Biological Specialty Corporation, Colmar, Pa.). Cells were pelleted/washed 2-3 times by low speed centrifugation and resuspension in Dulbecco's phosphate buffered saline (PBS) to remove contaminating platelets. The leukophoresed blood was then diluted 1:1 with PBS and layered over 14 mL of Ficoll-Hypaque density gradient (Lymphocyte Separation Medium, Cell Grow #85-072-CL, density 1.078+/−0.002 g/mL) in a 50 mL centrifuge tube and then centrifuged for 30 min at 600×g. Banded PBMCs were gently aspirated from the resulting interface and subsequently washed twice with PBS by low speed centrifugation. After the final wash, cells were enumerated by trypan blue exclusion and re-suspended at 1×10^6 cells/mL in RPMI 1640 supplemented with 15% Fetal Bovine Serum (FBS), 2 mM L-glutamine, 100 U/mL penicillin, […] streptomycin, and 4 μg/mL Phytohemagglutinin (PHA; Sigma, St. Louis, Mo.; cat #L1668). The cells were allowed to incubate for 48-72 h at 37° C. After incubation, PBMCs were centrifuged and resuspended in RPMI 1640 with 15% FBS, L-glutamine, penicillin, streptomycin, non-essential amino acids (MEM/NEAA; Hyclone; cat #SH30238.01), and 20 U/mL recombinant human IL-2 (R&D Systems Inc., Minneapolis, Minn.; cat #202IL). PBMCs were maintained in this medium at a concentration of 1-2×10^6 cells/mL, with twice-weekly medium changes until they were used in the assay protocol. Monocytes-derived-macrophages were depleted from the culture as the result of adherence to the tissue culture flask.
PBMC Assay. For the standard PBMC assay, PHA stimulated cells from at least two normal donors were pooled (mixed together), diluted in fresh medium to a final concentration of 1×10^6 cells/mL, and plated in the interior wells of a 96 well round bottom microplate at 50 μL/well (5×10^4 cells/well) in a standard formate developed by the Infectious Disease Research Department of the SRI. […]

WT pNL4-3 = assay: CA-SP1 accumulation assay, WT NL4-3; assay type: cell-based, HIV-1; conditions: HeLa or 293T cells; for % CA-SP1 Accumulation 10 nM NL4-3: 10 nM compound
Method in brief: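 HeLa or 293T cells transfected with proviral clone, maturation inhibitors present through transfection and labeling; at 24 h, [^35S]Met/Cys labeling 2-3 h. Virions pelleted by ultracentrifugation, lysed, CA and CA-SP1 resolved by SDS-PAGE and quantified by phosphorimaging.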

[2] = Human immunodeficiency virus 1, IIIB, PBMC, isolate A17 (IIIB)
[3] = Human immunodeficiency virus 1, NL43, PBMC, isolate NL4-3, PBMC
[4] = Human immunodeficiency virus 1, NL43, PBMC, isolate NL4-3 gp41(36G) N42T, N43K, PBMC
[5] = Human immunodeficiency virus 1, PBMC, isolate 92BR030, PBMC
[6] = Human immunodeficiency virus 1, PBMC, isolate 92RW009, PBMC
[7] = Human immunodeficiency virus 1, PBMC, isolate 92UG001, PBMC
[8] = Human immunodeficiency virus 1, PBMC, isolate 93BR020, PBMC
[9] = Human immunodeficiency virus 1, PBMC, isolate 93BR029, PBMC
[10] = Human immunodeficiency virus 1, PBMC, isolate 93IN101, PBMC
[11] = Human immunodeficiency virus 1, PBMC, isolate 99UGA07412MI, PBMC
[12] = Human immunodeficiency virus 1, PBMC, isolate 1022-48, PBMC
[13] = Human immunodeficiency virus 1, PBMC, isolate 1064-52, PBMC
[14] = Human immunodeficiency virus 1, PBMC, isolate 4736_4 (NL4-3), PBMC
[15] = Human immunodeficiency virus 1, PBMC, isolate BCF02, PBMC
[16] = Human immunodeficiency virus 1, PBMC, isolate CMU02, PBMC
[17] = Human immunodeficiency virus 1, PBMC, isolate JV1083, PBMC
[18] = Human immunodeficiency virus 1, PBMC, isolate MDR769, PBMC
[19] = Human immunodeficiency virus 1, PBMC, isolate YBF30, PBMC

| Compound | IC50 [1, 2] [nM] | IC50 [1, 3] [nM] | IC50 [1, 4] [nM] | IC50 [1, 5] [nM] | IC50 [1, 6] [nM] | IC50 [1, 7] [nM] | IC50 [1, 8] [nM] | IC50 [1, 9] [nM] | IC50 [1, 10] [nM] | IC50 [1, 11] [nM] | IC50 [1, 12] [nM] | IC50 [1, 13] [nM] | IC50 [1, 14] [nM] | IC50 [1, 15] [nM] | IC50 [1, 16] [nM] | IC50 [1, 17] [nM] | IC50 [1, 18] [nM] | IC50 [1, 19] [nM] | % CA-SP1 Accumulation 10 nM NL4-3 (WT pNL4-3) | further results |
| --- | --- | --- | --- | --- | --- | --- | --- | --- | --- | --- | --- | --- | --- | --- | --- | --- | --- | --- | --- | --- |
| C=C(C)[C@@H]1CC[C@]2(CCNCCN3CCS(=O)(=O)CC3)CC[C@]3(C)[C@H](CC[C@@H]4[C@@]5(C)CC[C@H](OC(=O)CC(C)(C)C(=O)O)C(C)(C)[C@@H]5CC[C@]43C)[C@@H]12 [Compound 51ee, (3β)-17-[[[2-[2-(1,1-Dioxothiomorpholin-4-yl)]Ethyl]Amino]Ethyl]-28-norlup-20(29)-en-3-ol, 3-(1-Hydrogen 2,2-Dimethylbutanedioate)] | 1.4 | 0.8 | 1.3 | 455 | 20.7 | 0.4 | 1.8 | 0.9 | 2.7 | 2.2 | 1.1 | 0.5 | 1 | 1.7 | 110 | 126 | 1.4 | 8.4 | 73.5% |  |
| C=C(C)[C@@H]1CC[C@]2(CCNC3CCN(CCO)CC3)CC[C@]3(C)[C@H](CC[C@@H]4[C@@]5(C)CC[C@H](OC(=O)CC(C)(C)CC(=O)O)C(C)(C)[C@@H]5CC[C@]43C)[C@@H]12 [Compound 51f, (3β)-17-[2-[[1-(2-Hydroxyethyl)piperidin-4-yl]amino]ethyl]-28-norlup-20(29)-en-3-ol, 3-(Hydrogen 3,3-Dimethylpentanedioate), Bis(trifluoroacetate) Salt] | 8.2 | 4 | 5.6 | 100 |  |  |  | 5.1 | 89 | 8.2 | 18.9 |  | 3.3 | 4.6 | 316 | 477 | 5.9 | 14.8 |  | IC50 ([1]; Human immunodeficiency virus 1, PBMC, isolate 92UG031, PBMC): > 1000 nM; IC50 ([1]; Human immunodeficiency virus 1, PBMC, isolate MDR807, PBMC): > 1000 nM; % CA-SP1 Accumulation 100 nM NL4-3 (WT pNL4-3; 100 nM compound): 79.7 (3) % |
| C=C(C)[C@@H]1CC[C@]2(CCNCCN3CCN(S(C)(=O)=O)CC3)CC[C@]3(C)[C@H](CC[C@@H]4[C@@]5(C)CC[C@H](OC(=O)CC(C)(C)C(=O)O)C(C)(C)[C@@H]5CC[C@]43C)[C@@H]12 [Compound 51ff, (3β)-17-[2-[[2-[4-(Methylsulfonyl)piperazin-1-yl]ethyl]amino]ethyl]-28-norlup-20(29)-en-3-ol, 3-(1-Hydrogen 2,2-Dimethylbutanedioate)] | 1.8 | 0.8 | 1.4 | > 1000 | 39.4 | < 0.15 | 2.4 | 1.1 | 14.2 | 4.3 | 1.3 | 0.7 | 0.8 | 2.8 | 217 | 460 | 1.7 | 3.6 | 72.7 (3) % |  |
| C=C(C)[C@@H]1CC[C@]2(CCNCCN3CCN(Cc4ccccc4)CC3)CC[C@]3(C)[C@H](CC[C@@H]4[C@@]5(C)CC[C@H](OC(=O)CC(C)(C)C(=O)O)C(C)(C)[C@@H]5CC[C@]43C)[C@@H]12 [Compound 51hh, (3β)-17-[2-[[2-[4-(Phenylmethyl)piperazin-1-yl]ethyl]amino]ethyl]-28-norlup-20(29)-en-3-ol, 3-(1-Hydrogen 2,2-Dimethylbutanedioate)] | 6.1 | 1.4 | 3.8 | > 1000 | 10.4 | 1.2 | 3 | 4.1 | 5.6 | 8 | 3.2 | 1.7 | 1.4 | 3.8 | 11.1 | 17.1 | 4.4 | 132 | 66.4 (3) % | IC50 ([1]; isolate CMU02, PBMC): 7.1 nM |
